We go through 24 molecules from patent US20060211698A1, “Bicyclic heteroaryl derivatives for treating viruses” (Genelabs, Inc., priority 2005, published 2006).

The target in the assay is T1, HCV-NS5b (Hepatitis C virus genotype 1b, UniProt Q9WMX2).
T1 construct: The cloned fragment was missing the C terminus 21 amino acid residues; (His)6 (C); made in house; host or cells: XL-1 cells (E. coli)
The assay is described as follows: HCV-NS5b Enzyme Assay. The format is biochemical. Conditions: 1 μM test compound; incorporation of [3H]-UTP, 37° C., 2 hours. An excerpt: The coding sequence of NS5b protein was cloned by PCR from pFKI389luc/NS3-3′/ET as described by Lohmann, V., et al. (1999) Science 285, 110-113 using the following primers: • […] (SEQ. ID. NO. 1) • […] (SEQ. ID. NO. 2)
The cloned fragment was missing the C terminus 21 amino acid residues. The cloned fragment is inserted into an IPTG-inducible expression plasmid that provides an epitope tag (His)6 at the carboxy terminus of the protein.
The recombinant enzyme was expressed in XL-1 cells and after induction of expression, the protein was purified using affinity chromatography on a nickel-NTA column. Storage condition is 10 mM Tris-HCl pH 7.5, 50 mM NaCl, 0.1 mM EDTA, 1 mM DTT, 20% glycerol at −20° C.
The polymerase activity was assayed by measuring incorporation of radiolabeled UTP into a RNA product using a biotinylated, heteropolymeric template, which includes a portion of the HCV genome. Typically, the assay mixture […] contains 10 mM Tris-HCl (pH 7.5), 5 mM MgCl2, 0.2 mM EDTA, 10 mM KCl, 1 unit/μL RNAsin. 1 mM DTT, 10 μM each of NTP, including [^3H]-UTP, and 10 ng/μL biotinylated heteropolymeric template. 20× test compound in 2 μl's was then added as a 100% DMSO solution to achieve a final DMSO concentration of 5%. For IC50 determination a 10-point dose response was used. The compounds were serial diluted 2-fold […]. Typically for IC50's, compounds were tested starting at 50 uM or 2 μm depending on the potency. Reactions were started with addition of 10×NS5B in 4 μl's and allowed to incubate at 37° C. for 2 hours. Reactions were quenched with 8 μL of 100 mM EDTA and reaction mixtures (30 μL) were transferred to streptavidin-coated scintillation proximity microtiter plates (FlashPlates) and incubated at 4° C. overnight. Incorporation of radioactivity was determined by scintillation counting (cpm). The % Inhibition at a particular concentration was determined using the following equation, % Inhibition=100−[100*(cpm with inhibitor−bg)/(cpm with no inhibitor−bg)] where bg was the background with no enzyme.
Take `COc1ccc(-c2ccc(Cl)cc2)c(-c2ccc3cc(-c4[nH]c5cc(C(=O)O)ccc5c4C4CCCCC4)ccc3n2)c1` [Compound 200, 2-[2-(4′-chloro-4-methoxy-biphenyl-2-yl)-quinolin-6-yl]-3-cyclohexyl-1H-indole-6-carboxylic acid]: the inhibition – broadly, the relative decrease from the control value, in per cent – at 1 µM came out at 96.2%.
`COC(=O)c1ccc2c(C3CCCCC3)c(-c3ccc4nc(-c5cc(OC)ccc5-c5ccc(Cl)cc5)ccc4c3)n(CC(=O)O)c2c1` [Compound 201, 1-carboxymethyl-2-[2-(4′-chloro-4-methoxy-biphenyl-2-yl)-quinolin-6-yl]-3-cyclohexyl-1H-indole-6-carboxylic acid methyl ester] registered an inhibition at 1 µM of 77.7%.
The same measure, in the same setting: as for `COc1ccc(-c2ccc(Cl)cc2)c(-c2ccc3cc(-c4c(C5CCCCC5)c5ccc(C(=O)O)cc5n4CC(=O)O)ccc3n2)c1` [Compound 202, 1-carboxymethyl-2-[2-(4′-chloro-4-methoxy-biphenyl-2-yl)-quinolin-6-yl]-3-cyclohexyl-1H-indole-6-carboxylic acid], the figure is 98.3%; as for `COc1ccc(-c2ccc(Cl)cc2)c(-c2ccc3cc(-c4c(C5CCCCC5)c5ccc(C(=O)O)cc5n4CC(=O)N4CCOCC4)ccc3n2)c1` [Compound 203, 1-[N-morpholinocarbonylmethyl]-2-[2-(4′-chloro-4-methoxy-biphen-2-yl)-quinolin-6-yl]-3-cyclohexyl-1H-indole-6-carboxylic acid], 98.7%.
`COc1ccc(-c2ccc(Cl)cc2)c(-c2ccc3cc(-c4c(C5CCCCC5)c5ccc(C(=O)O)cc5n4CC(=O)N4CCNCC4)ccc3n2)c1` [Compound 204, 1-[N-piperazinylcarbonylmethyl]-2-[2-(4′-chloro-4-methoxy-biphen-2-yl)-quinolin-6-yl]-3-cyclohexyl-1H-indole-6-carboxylic acid] yielded an inhibition at 1 µM of 95.9%.
Still for that read-out and setting: next, `COc1ccc(-c2ccc(Cl)cc2)c(-c2ccc3cc(-c4c(C5CCCCC5)c5ccc(C(=O)O)cc5n4CC(=O)N4CCC(N5CCCC5)CC4)ccc3n2)c1` [Compound 205, 1-[(4-pyrrolidin-1-yl-piperidin-1-yl)carbonylmethyl]-2-[2-(4′-chloro-4-methoxy-biphen-2-yl)-quinolin-6-yl]-3-cyclohexyl-1H-indole-6-carboxylic acid]: 97%; `COc1ccc(-c2ccc(Cl)cc2)c(-c2ccc3cc(-c4c(C5CCCCC5)c5ccc(C(=O)O)cc5n4CC(=O)N(C)C)ccc3n2)c1` [Compound 206, 1-[N,N-dimethylaminocarbonyl-methyl]-2-[2-(4′-chloro-4-methoxy-biphen-2-yl)-quinolin-6-yl]-3-cyclohexyl-1H-indole-6carboxylic acid]: 99%; `NC(=O)c1cc(-c2ccc3cc(-c4c(C5CCCCC5)c5ccc(C(=O)O)cc5n4CC(=O)N4CCOCC4)ccc3n2)ccc1O` [Compound 207, 1-[N-morpholinocarbonylmethyl]-2-[2-(3-amido-4-hydroxy-phenyl)-quinolin-6-yl]-3-cyclohexyl-1H-indole-6-carboxylic acid]: 95.7%.
Still for that read-out and setting: as for `NC(=O)c1cc(-c2ccc3cc(-c4c(C5CCCCC5)c5ccc(C(=O)O)cc5n4CC(=O)O)ccc3n2)ccc1O` [Compound 208, 1-carboxylmethyl-2-[2-(3-Carbamoyl-4-hydroxy-phenyl)-quinolin-6-yl]-3-cyclohexyl-1H-indole-6-carboxylic acid], the figure is 84.5%.
Consider `O=C(O)c1ccc2c(C3CCCCC3)c(-c3ccc4nc(-c5ccc(-n6ccnc6)cc5)ccc4c3)n(CC(=O)N3CCOCC3)c2c1` [Compound 209, 1-[N-morpholinocarbonylmethyl]-2-[2-(4-(1H-imidazolyl)phenyl)-quinolin-6-yl]-3-cyclohexyl-1H-indole-6-carboxylic acid], for which the “% inhibition @ 1 μM” value is recorded as 98.5%.
`Cc1nc(C)c(-c2ccc3cc(-c4c(C5CCCCC5)c5ccc(C(=O)O)cc5n4CC(=O)N4CCOCC4)ccc3n2)s1` [Compound 210, 1-[N-morpholinocarbonylmethyl]-2-[2-(2,4-dimethylthiazol-5-yl)-quinolin-6-yl]-3-cyclohexyl-1H-indole-6-carboxylic acid] gave an inhibition at 1 µM of 97.3%.
Consider `Cc1nc(C)c(-c2ccc3cc(-c4c(C5CCCCC5)c5ccc(C(=O)O)cc5n4CC(=O)O)ccc3n2)s1` [Compound 211, 1-[carboxymethyl]-2-[2-(2,4-dimethylthiazol-5-yl)-quinolin-6-yl]-3-cyclohexyl-1H-indole-6-carboxylic acid], for which the inhibition at 1 µM was found to be 91%.
In turn, `Cc1nc(C)c(-c2ccc3cc(-c4c(C5CCCCC5)c5ccc(C(=O)O)cc5n4CC(=O)N(C)C)ccc3n2)s1` [Compound 212, 1-[N,N-dimethylaminocarbonyl-methyl]-2-[2-(2,4-dimethylthiazol-5-yl)-quinolin-6-yl]-3-cyclohexyl-1H-indole-6-carboxylic acid] yielded an inhibition at 1 µM of 96.8%.
With `Cc1nc(C)c(-c2ccc3cc(-c4c(C5CCCCC5)c5ccc(C(=O)O)cc5n4CC(=O)NCC(=O)O)ccc3n2)s1` [Compound 213, 1-[(N-carboxymethycarbamoyl)-methyl]-[2-(2,4-dimethyl-thiazol-5-yl)-quinolin-6-yl]-3-cyclohexyl-1H-indole-6-carboxylic acid], the “% inhibition @ 1 μM” value came out at 92.1%.
For `Cc1nc(C)c(-c2ccc3cc(-c4c(C5CCCCC5)c5ccc(C(=O)O)cc5n4CC(=O)N4CCC(N5CCCC5)CC4)ccc3n2)s1` [Compound 214, 1-[2-oxo-2-(4-pyrrolidin-1-yl-piperidin-1-yl)-ethyl]-2-[2-(2,4-dimethylthiazol-5-yl)-quinolin-6-yl]-3-cyclohexyl-1H-indole-6-carboxylic acid], the inhibition at 1 µM came out at 92.1%.
`Cc1nc(C)c(-c2ccc3cc(-c4c(C5CCCCC5)c5ccc(C(=O)O)cc5n4CC(=O)NCCO)ccc3n2)s1` [Compound 215, 1-[(2-hydroxyethylcarbamoyl)-methyl]-2-[2-(2,4-dimethyl-thiazol-5-yl)-quinolin-6-yl]-3-cyclohexyl-1H-indole-6-carboxylic acid] yielded an inhibition at 1 µM of 94.3%.
Molecule `Cc1nc(C)c(-c2nc3ccc(-c4cc5ccc(C(=O)O)cc5n4CC(=O)N4CCCCC4)cc3cc2C2CCCCC2)s1` [Compound 216, 1-(2-oxo-2-piperidin-1-yl-ethyl)-2-[2-(2,4-dimethylthiazol-5-yl)-3-cyclohexylquinolin-6-yl]-1H-indole-6-carboxylic acid] registered an inhibition at 1 µM of 98.8%.
For the molecule `O=C(O)c1ccc2c(C3CCCCC3)c(-c3ccc4nc(-c5ccccn5)ccc4c3)n(CC(=O)N3CCOCC3)c2c1` [Compound 217, 1-[N-morpholinocarbonylmethyl]-2-[2-(pyrid-2-yl)-quinolin-6-yl]-3-cyclohexyl-1H-indole-6-carboxylic acid], the “% inhibition @ 1 μM” value amounted to 98.0%.
In the case of `O=C(O)c1ccc2c(C3CCCCC3)c(-c3ccc4nc(-c5cnccn5)ccc4c3)n(CC(=O)N3CCOCC3)c2c1` [Compound 218, 1-[N-morpholinocarbonylmethyl]-2-[2-(pyrazin-2-yl)-quinolin-6-yl]-3-cyclohexyl-1H-indole-6-carboxylic acid], the “% inhibition @ 1 μM” value is listed as 96.2%.
Turning to `O=C(O)c1ccc2c(C3CCCCC3)c(-c3ccc4nc(-c5ccc[nH]5)ccc4c3)n(CC(=O)N3CCOCC3)c2c1` [Compound 219, 1-[N-morpholinocarbonylmethyl]-2-[2-(pyrrol-2-yl)-quinolin-6-yl]-3-cyclohexyl-1H-indole-6-carboxylic acid], the “% inhibition @ 1 μM” value is 96.0%.
On to `O=C(O)c1ccc2c(C3CCCCC3)c(-c3ccc4nc(-c5ccccc5)ccc4c3)n(CC(=O)N3CCOCC3)c2c1` [Compound 220, 1-[N-morpholinocarbonylmethyl]-2-[2-phenylquinolin-6-yl]-3-cyclohexyl-1H-indole-6-carboxylic acid], for which the “% inhibition @ 1 μM” value worked out at 96.4%.
Regarding `COc1cccc(-c2ccc3cc(-c4c(C5CCCCC5)c5ccc(C(=O)O)cc5n4CC(=O)N4CCOCC4)ccc3n2)c1` [Compound 221, 3-Cyclohexyl-2-[2-(3-methoxy-phenyl)-quinolin-6-yl]-1-(2-morpholin-4-yl-2-oxo-ethyl)-1H-indole-6-carboxylic acid], 1 µM produced 99.6% inhibition.
For `O=C(O)c1ccc2c(C3CCCCC3)c(-c3ccc4nc(-c5ccco5)ccc4c3)n(CC(=O)N3CCOCC3)c2c1` [Compound 222, 1-[N-morpholinocarbonylmethyl]-2-(2-furan-2-yl-quinolin-6-yl)-3-cyclohexyl-1H-indole-6-carboxylic acid], the “% inhibition @ 1 μM” value worked out at 92.3%.
As for `Cc1ccc(-c2ccc3cc(-c4c(C5CCCCC5)c5ccc(C(=O)O)cc5n4CC(=O)N4CCOCC4)ccc3n2)o1` [Compound 223], the “% inhibition @ 1 μM” value stood at 95.1%.
